Data taken from patent EP0205068B1, “Lysergic-acid amides, process for their preparation and medicaments containing them” (ARZNEIMITTELWERK DRESDEN GmbH, priority 1985, dated 1986).
Where “and” joins values, the source holds several entries; their conditions need not be identical. Equal values may be shown once.

Assays:
[1] = system: Maus; test: Porsolt swim test (immobility duration); type: in vivo
[2] = system: Ratten; test: SFT test (spinal cord fixation time); type: in vivo
Excerpt: 4. SFT-Test (Spinal cord fixation time)
C.Giurgea und F.Mouravieff-Lesmisse Arch.Intern.Pharmacodyn.191 (1971) 279
Es ist die Anzahl der Tiere mit persistierender Asymmetrie zur Gesamtzahl der eingesetzten Ratten aufgeführt.

[3] = system: transcallosal ausgelöster Potentiale; test: Influence on transcallosally evoked potentials in awake rats fixed in a stereotactic apparatus; type: in vivo, weiblichen Wistarratten; conditions: 1 mg/kg i.p.
Excerpt: 3. Beeinflussung transcallosal ausgelöster Potentiale
Methodik in Anlehnung an C.Giurgea und F.Moyersoons, Arch.Int.Pharmacodyn.199,(1972) 67
Die Untersuchung wurde an wachen, im stereotaktischen Apparat fixierten weiblichen Wistarratten durchgeführt.

[4] = system: Vena femoralis; test: Contraction of isolated human vessel preparations, vein; set-up: species or system menschlichen
Excerpt: (§1) 6. Untersuchungen an isolierten menschlichen Gefäßpräparaten
(§2) (Vena und Arteria femoralis)
(§3) Glusa, E. und F. Markwardt, Pharmacolgy 24 (1982) 287 sowie Naunyn-Schmiedebergs-Arch. Pharmacol. 323 (1983) 101

[5] = system: vas deferens des Meerschweinchens; test: Noradrenaline antagonism on isolated vas deferens; conditions: Cavia porcellus, read-out: Hemmung (x̄ ± sx̄) in %
Excerpt: 5. Noradrenalin-Antagonismus
Noradrenalin-Antagonismus am vas deferens des Meerschweinchens

[6] = system: Arteria femoralis; test: Contraction of isolated human vessel preparations, artery; set-up: species or system menschlichen
Excerpt: as §1, §2, §3

Structure (SMILES)	Immobilitätsdauer (sec) x̄ ± sx̄ ([1]; 3 mg/kg p.o.)	Immobilitätsdauer (sec) x̄ ± sx̄ ([1]; 1 mg/kg i.p.)	Amplitudenbeeinflussung b.max.Reizintensität neg.Welle ([3]; 60')	Amplitudenbeeinflussung b.max.Reizintensität pos.Welle ([3]; 60')	Amplitudenbeeinflussung b.mittl.Reizintensität neg.Welle ([3]; 60')	Amplitudenbeeinflussung b.mittl.Reizintensität pos.Welle ([3]; 60')	Amplitudenbeeinflussung b.max.Reizintensität neg.Welle ([3]; 120')	Amplitudenbeeinflussung b.max.Reizintensität pos.Welle ([3]; 120')	Amplitudenbeeinflussung b.mittl.Reizintensität neg.Welle ([3]; 120')	Amplitudenbeeinflussung b.mittl.Reizintensität pos.Welle ([3]; 120')	Amplitudenbeeinflussung b.max.Reizintensität neg.Welle ([3]; 180')	Amplitudenbeeinflussung b.max.Reizintensität pos.Welle ([3]; 180')	Amplitudenbeeinflussung b.mittl.Reizintensität neg.Welle ([3]; 180')	Amplitudenbeeinflussung b.mittl.Reizintensität pos.Welle ([3]; 180')	Amplitudenbeeinflussung b.max.Reizintensität neg.Welle ([3]; VW = Vorwert (pre-dose value))	Amplitudenbeeinflussung b.max.Reizintensität pos.Welle ([3]; VW = Vorwert (pre-dose value))	Amplitudenbeeinflussung b.mittl.Reizintensität neg.Welle ([3]; VW = Vorwert (pre-dose value))	Amplitudenbeeinflussung b.mittl.Reizintensität pos.Welle ([3]; VW = Vorwert (pre-dose value))	further results
CCC(=O)OCCN(CCOC(=O)CC)C(=O)[C@@H]1C[C@@H]2c3cccc4c3c(cn4C)C[C@H]2N(C)C1 [1 e, 1-Methyl-9,10-dihydrolysergsäure-bis-(ß-propionylethyl)-amid]	210,0 ± 3,8 sec																		
CC(=O)OCCN(CCOC(C)=O)C(=O)[C@@H]1C[C@@H]2c3cccc4c3c(cn4C)C[C@H]2N(C)C1 [1 c, 1-Methyl-9,10-dihydrolysergsäure-bis-(ß-acetoxyethyl)-amid]	203,6 ± 5,9 sec																		
CO[C@]12C[C@@H](COC(=O)c3cncc(Br)c3)CN(C)[C@@H]1Cc1cn(C)c3cccc2c13 [Nicergolin, 10a-Methoxy-1,6-dimethyl-ergolin-8ß-methanol-(5'-bromnicotinat), reference compound]		196,7 ± 5,6 sec	0,41±0,03 µV	0,40±0,02 µV	0,24±0,02 µV	0,24±0,01 µV	0,38±0,02 µV	0,36±0,02 µV	0,23±0,02 µV	0,22±0,02 µV	0,39±0,04 µV	0,39±0,04 µV	0,21±0,01 µV	0,19±0,02 µV	0,39±0,02 µV	0,39±0,02 µV	0,23±0,02 µV	0,23±0,02 µV	Anzahl der Tiere mit persistierender Asymmetrie zur Gesamtzahl der eingesetzten Ratten ([2]; Dosis ip. 1 mg/kg): 2/10; Anzahl der Tiere mit persistierender Asymmetrie zur Gesamtzahl der eingesetzten Ratten ([2]; Dosis ip. 3 mg/kg): 4/6
CC(=O)OCCN(CCOC(C)=O)C(=O)[C@@H]1C[C@@H]2c3cccc4[nH]cc(c34)C[C@H]2N(C)C1 [1 a, 9,10-Dihydrolysergsäure-bis-(β-acetoxyethyl)amid]		202,6 ± 1,8 sec	0,40±0,03 µV	0,42±0,03 µV	0,23±0,03 µV	*0,26±0,03 µV	*0,40±0,02 µV	0,41±0,02 µV	*0,25±0,03 µV	*0,27±0,03 µV	0,39±0,02 µV	0,42±0,02 µV	0,23±0,03 µV	*0,25±0,02 µV	0,34±0,03 µV	0,38±0,03 µV	0,18±0,02 µV	0,19±0,02 µV	Anzahl der Tiere mit persistierender Asymmetrie zur Gesamtzahl der eingesetzten Ratten ([2]; Dosis ip. 2 mg/kg): 5/10; pharmakologisch wertvolle Nebenwirkungen ([4]; statement in words): Tonisierung der Venen; inhibition at 10 µM ([5]; Konzentration 10^-5 mol/l): 60.7%; inhibition at 1 µM ([5]; Konzentration 10^-6 mol/l): 14.7%; inhibition at 0.1 µM ([5]; Konzentration 10^-7 mol/l): 4.4%
CN1C[C@H](C(=O)N[C@]2(C)O[C@@]3(O)[C@@H]4CCCN4C(=O)[C@H](Cc4ccccc4)N3C2=O)C[C@@H]2c3cccc4[nH]cc(c34)C[C@H]21 [Dihydro-ergo-tamin]																			%-Kontraktion bezogen auf NA [6]: 8,8 ± 8%; %-Kontraktion bezogen auf NA [4]: 61 ± 24% and 52 ± 18%
CC(=O)OCCN(CCOC(C)=O)C(=O)[C@@H]1C[C@@H]2c3cccc4c3c(cn4Cc3cccc(F)c3)C[C@H]2N(C)C1 [1 l, 1-(3'-Fluorbenzyl)-9,10-dihydrolysergsäure-bis-(ß-acetoxyethyl)-amid]		199,4 ± 2,3 sec																	
